Assay in all cases: relative viability (nuclei count vs DMSO), 5 days (fraction); higher = more cells survive
Compound in the assay “BAM7 + Luminespib”: CCOC1=CC=CC=C1N=NC2=C(NN(C2=O)C3=NC(=CS3)C4=CC=CC=C4)C [BAM7] + CCNC(=O)c1noc(-c2cc(C(C)C)c(O)cc2O)c1-c1ccc(CN2CCOCC2)cc1 [Luminespib] (partner 0.01 µM)
The method, boiled down: (§1)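 Lung cancer cell lines in 1536-well plates got either a single drug or a fixed anchor-drug dose together with five library-drug doses (not always all listed) in √10 steps, by pin tool, on the day after seeding. Nuclei were counted after 5 days, and relative viability is the treated-to-vehicle ratio of nuclei counts. Values are medians of duplicate plates.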

Compound in assay [1]: CCn1c(-c2nonc2N)nc2c(C#CC(C)(C)O)ncc(OC[C@H]3CCCNC3)c21 + CC(=O)c1c(C)c2cnc(Nc3ccc(N4CCNCC4)cn3)nc2n(C2CCCC2)c1=O [Palbociclib] (partner 0.5 µM)
The method, boiled down: as §1

Compound in assay [2]: CCn1c(-c2nonc2N)nc2c(C#CC(C)(C)O)ncc(OC[C@H]3CCCNC3)c21 + N=C(N)NC(=N)NCCc1ccccc1 [Phenformin] (partner 250 µM)
The method, boiled down:
as §1

Compound in assay [3]: CCn1c(-c2nonc2N)nc2c(C#CC(C)(C)O)ncc(OC[C@H]3CCCNC3)c21 + O=C(c1cc(Cc2n[nH]c(=O)c3ccccc23)ccc1F)N1CCN(C(=O)C2CC2)CC1 [Olaparib] (partner 8 µM)
Summed up:
as §1

For UMC-11, the relative viability with BAM7 + Luminespib (first compound 0.5 µM) was determined as 1.07; with BAM7 + Luminespib (first compound 5 µM) it was 1.11; with BAM7 + Luminespib (first compound 15.81 µM) it was 1.1; in the assay with BAM7 + Luminespib (first compound 50 µM), 0.991; in assay [1] (first compound 0.01 µM), 0.292; in assay [1] (first compound 0.03162 µM) it was 0.291. Also, the relative viability is 0.305 in assay [1] (first compound 0.1 µM); 0.329 in assay [1] (first compound 0.3162 µM); 0.339 in assay [1] (first compound 1 µM); 0.35 in assay [2] (first compound 0.01 µM); 0.351 in assay [2] (first compound 0.03162 µM); 0.31 in assay [2] (first compound 0.1 µM). The relative viability in assay [2] (first compound 0.3162 µM) came out at 0.32; in assay [2] (first compound 1 µM), 0.301; in assay [3] (first compound 0.01 µM) it was 0.402; in assay [3] (first compound 0.03162 µM), 0.391; in assay [3] (first compound 0.1 µM) it was 0.655; in assay [3] (first compound 0.3162 µM) it was 0.392. Besides, in assay [3] (first compound 1 µM), the relative viability was 0.359.

The values are drawn from the supplement of paper PMC10307832.
